Experiment [1] deals with T1, AAK1 (Homo sapiens, UniProt Q2M2I8).
T1 construct: purchased in-house thermal shift (DSF) kinase panel (SGC Frankfurt); Promega NanoBRET for AURKA/B/C
As to the kind of experiment: Thermal shift assay. The settings on record: read-out: ΔTm AAK1. The format is binding.

Experiment [2] addresses T2, CASK (Homo sapiens, UniProt O14936).
T2 construct: purchased in-house thermal shift (DSF) kinase panel (SGC Frankfurt); Promega NanoBRET for AURKA/B/C
T2 sequence (O14936 1-337): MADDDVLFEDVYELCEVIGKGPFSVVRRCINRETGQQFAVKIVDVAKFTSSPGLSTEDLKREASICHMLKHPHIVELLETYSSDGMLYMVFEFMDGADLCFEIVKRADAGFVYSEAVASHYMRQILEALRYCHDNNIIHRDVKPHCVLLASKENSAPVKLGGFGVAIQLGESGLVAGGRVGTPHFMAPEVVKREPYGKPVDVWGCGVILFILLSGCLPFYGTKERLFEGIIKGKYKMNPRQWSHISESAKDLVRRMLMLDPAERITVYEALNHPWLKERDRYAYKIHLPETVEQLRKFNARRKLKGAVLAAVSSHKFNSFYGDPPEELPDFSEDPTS
Nature of the experiment: Thermal shift assay. Format: binding. The following applies: read-out: ΔTm CASK.

Experiment [3] concerns the target T3, CHEK2 (Homo sapiens, UniProt O96017).
T3 construct: purchased in-house thermal shift (DSF) kinase panel (SGC Frankfurt); Promega NanoBRET for AURKA/B/C
Nature of the experiment: Thermal shift assay. The following applies: read-out: ΔTm CHEK2. The format is binding.

Experiment [4] addresses T4, FES (Homo sapiens, UniProt P07332).
T4 construct: purchased in-house thermal shift (DSF) kinase panel (SGC Frankfurt); Promega NanoBRET for AURKA/B/C
Nature of the experiment: Thermal shift assay. Format: binding. The following applies: read-out: ΔTm FES.

The target of experiment [5] is T5, GSK3B (Homo sapiens, UniProt P49841).
T5 construct: purchased in-house thermal shift (DSF) kinase panel (SGC Frankfurt); Promega NanoBRET for AURKA/B/C
Nature of the experiment: Thermal shift assay. Format: binding. The following applies: read-out: ΔTm GSK3B.

In experiment [6] the target is T6, MERTK (Homo sapiens, UniProt Q12866).
T6 construct: purchased in-house thermal shift (DSF) kinase panel (SGC Frankfurt); Promega NanoBRET for AURKA/B/C
T6 sequence (Q12866 570-864): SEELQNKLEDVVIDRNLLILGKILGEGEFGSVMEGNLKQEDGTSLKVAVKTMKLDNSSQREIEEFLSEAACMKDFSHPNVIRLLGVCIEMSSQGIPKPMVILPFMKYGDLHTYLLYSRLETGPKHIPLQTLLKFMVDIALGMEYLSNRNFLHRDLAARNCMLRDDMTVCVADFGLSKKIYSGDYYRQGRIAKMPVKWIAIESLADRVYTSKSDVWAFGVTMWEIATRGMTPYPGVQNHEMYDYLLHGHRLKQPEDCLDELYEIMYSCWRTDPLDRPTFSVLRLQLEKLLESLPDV
As to the kind of experiment: Thermal shift assay. The following applies: read-out: ΔTm MERTK. The format is binding.

Experiment [7] deals with T7, STK26 (Homo sapiens, UniProt Q9P289).
T7 construct: purchased in-house thermal shift (DSF) kinase panel (SGC Frankfurt); Promega NanoBRET for AURKA/B/C
As to the kind of experiment: Thermal shift assay. The following applies: read-out: ΔTm STK26. Format: binding.

Experiment [8] concerns CFL1 phosphorylation in primary IMCD cells. As to the kind of experiment: CFL1 phosphorylation, Western blotting. Format: cell-based, rat. The following applies: compound 20 µM, 1 h.
Experiment [9] has as its system AURKA. The settings on record: cited from earlier work.
Experiment [10] relates to complex of AURKA and TPX2. Further details: method as in PMID 26732741. The following applies: cited from earlier work.
Experiment [11] has as its system HCT116. The arrangement: method as in PMID 19402633, PMID 30097580. The following applies: colon cancer cell line HCT116; cited from earlier work.
The test system of experiment [12] is ARID1A-deficient colorectal cancer cells. The arrangement: method as in PMID 30097580. The following applies: cited from earlier work.
Experiment [13] deals with T8, AURKB (Homo sapiens, UniProt Q96GD4). As to the kind of experiment: Thermal shift assay. Format: binding. Further details: full-length wild-type AURKA, AURKB, and AURKC were obtained as plasmids cloned in frame with a C-terminal NanoLuc-fusion. The following applies: read-out: ΔTm AURKB.
Experiment [14] has as its target T8, AURKB. As to the kind of experiment: NanoBRET assay in HEK293T cells. The format is cell-based. Further details: full-length wild-type AURKA, AURKB, and AURKC were obtained as plasmids cloned in frame with a C-terminal NanoLuc-fusion; host or cells: HEK293T.
[15] abbreviates: NanoBRET, HEK293T cells overexpressing the kinase, Table 2, read-out: AURKB IC50.
Where [16] appears, read: NanoBRET, n = 2, mean, Figure 6B, read-out: affinity to intracellular AURKB.

Like-named read-outs stand apart in the source and are kept apart here.

T3 sequence (O96017 210-531): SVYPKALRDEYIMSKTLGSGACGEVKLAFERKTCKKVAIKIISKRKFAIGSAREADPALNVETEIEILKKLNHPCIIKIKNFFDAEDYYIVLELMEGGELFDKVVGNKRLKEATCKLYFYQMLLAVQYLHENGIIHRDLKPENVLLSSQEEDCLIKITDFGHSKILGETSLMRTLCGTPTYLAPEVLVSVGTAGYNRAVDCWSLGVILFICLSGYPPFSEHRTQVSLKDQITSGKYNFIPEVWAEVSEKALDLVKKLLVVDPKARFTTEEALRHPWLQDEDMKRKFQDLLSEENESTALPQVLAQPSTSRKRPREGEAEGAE
T4 sequence (P07332 whole entry): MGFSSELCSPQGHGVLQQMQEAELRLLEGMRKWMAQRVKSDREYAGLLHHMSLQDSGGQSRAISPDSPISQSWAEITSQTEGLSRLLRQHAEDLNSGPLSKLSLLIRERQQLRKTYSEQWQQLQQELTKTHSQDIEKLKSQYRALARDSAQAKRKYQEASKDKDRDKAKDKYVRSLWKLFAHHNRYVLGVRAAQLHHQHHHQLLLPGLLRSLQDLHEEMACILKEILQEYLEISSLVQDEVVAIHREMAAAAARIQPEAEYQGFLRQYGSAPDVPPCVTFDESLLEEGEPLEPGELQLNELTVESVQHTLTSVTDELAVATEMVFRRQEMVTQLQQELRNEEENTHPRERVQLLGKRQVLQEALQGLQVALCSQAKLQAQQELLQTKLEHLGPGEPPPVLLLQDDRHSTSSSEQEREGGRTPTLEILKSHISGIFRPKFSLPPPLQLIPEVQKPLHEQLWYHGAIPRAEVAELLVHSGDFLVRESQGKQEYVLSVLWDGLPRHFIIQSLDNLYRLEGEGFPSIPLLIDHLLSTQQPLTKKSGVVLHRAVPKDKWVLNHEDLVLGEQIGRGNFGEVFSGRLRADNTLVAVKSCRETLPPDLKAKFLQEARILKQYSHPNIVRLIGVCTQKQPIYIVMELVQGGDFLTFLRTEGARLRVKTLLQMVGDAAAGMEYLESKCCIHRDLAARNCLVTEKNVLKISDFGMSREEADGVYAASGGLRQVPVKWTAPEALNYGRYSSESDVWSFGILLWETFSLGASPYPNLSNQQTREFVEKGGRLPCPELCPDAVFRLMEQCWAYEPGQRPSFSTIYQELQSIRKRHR
T5 sequence (P49841 35-386): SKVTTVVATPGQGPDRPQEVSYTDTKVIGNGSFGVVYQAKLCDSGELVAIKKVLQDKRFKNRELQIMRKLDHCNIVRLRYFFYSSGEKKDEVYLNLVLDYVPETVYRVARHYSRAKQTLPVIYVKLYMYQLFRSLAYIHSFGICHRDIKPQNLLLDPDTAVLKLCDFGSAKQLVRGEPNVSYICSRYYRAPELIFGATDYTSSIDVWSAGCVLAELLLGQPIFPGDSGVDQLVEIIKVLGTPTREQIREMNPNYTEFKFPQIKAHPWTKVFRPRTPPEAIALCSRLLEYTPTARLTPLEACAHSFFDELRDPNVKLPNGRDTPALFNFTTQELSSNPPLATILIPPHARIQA
T8 sequence (Q96GD4 whole entry, the tested form may be a part): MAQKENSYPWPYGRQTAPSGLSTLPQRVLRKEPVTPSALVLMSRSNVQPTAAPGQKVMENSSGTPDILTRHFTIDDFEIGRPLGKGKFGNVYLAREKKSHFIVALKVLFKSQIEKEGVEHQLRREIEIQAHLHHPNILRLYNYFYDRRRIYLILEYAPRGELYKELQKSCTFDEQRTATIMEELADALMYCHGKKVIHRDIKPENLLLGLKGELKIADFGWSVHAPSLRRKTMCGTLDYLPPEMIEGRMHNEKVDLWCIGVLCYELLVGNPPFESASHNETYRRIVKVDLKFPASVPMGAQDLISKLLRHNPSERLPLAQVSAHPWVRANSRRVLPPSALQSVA
T1 sequence (Q2M2I8 27-365): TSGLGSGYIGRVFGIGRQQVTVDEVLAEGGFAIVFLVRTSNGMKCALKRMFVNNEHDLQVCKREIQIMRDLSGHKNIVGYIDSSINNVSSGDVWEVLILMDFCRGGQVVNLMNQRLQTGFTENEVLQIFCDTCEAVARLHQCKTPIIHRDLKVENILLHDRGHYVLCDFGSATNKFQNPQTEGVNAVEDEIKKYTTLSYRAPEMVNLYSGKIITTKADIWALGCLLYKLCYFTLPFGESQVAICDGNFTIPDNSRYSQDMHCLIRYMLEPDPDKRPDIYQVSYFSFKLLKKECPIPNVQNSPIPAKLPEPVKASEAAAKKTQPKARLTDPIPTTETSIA
T7 sequence (Q9P289 1-300): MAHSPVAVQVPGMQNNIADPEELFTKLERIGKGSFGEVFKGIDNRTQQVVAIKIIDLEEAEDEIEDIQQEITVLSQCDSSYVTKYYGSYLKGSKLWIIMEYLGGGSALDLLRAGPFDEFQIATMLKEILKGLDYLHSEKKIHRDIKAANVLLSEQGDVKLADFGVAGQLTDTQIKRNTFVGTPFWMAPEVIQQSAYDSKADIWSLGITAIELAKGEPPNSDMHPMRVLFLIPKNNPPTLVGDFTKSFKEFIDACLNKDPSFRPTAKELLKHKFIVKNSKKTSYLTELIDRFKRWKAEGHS

The ΔTm is the shift of the melting midpoint relative to a reference. With `CCN1CCN(C(=O)Cc2ccc(Nc3ncc(F)c(Nc4ccc(C(=O)Nc5ccccc5Cl)cc4)n3)cc2)CC1` [Aurora-A inhibitor I, reference compound], the shift in melting temperature (ΔTm) at 10 µM in [1] worked out at 2.3 °C; in experiment [2], 0.2 °C; in experiment [3], 2.2 °C; in experiment [4] it was 1.4 °C; in experiment [5], 3.1 °C; in experiment [6], 1.7 °C. The ΔTm at 10 µM is 0.6 °C in experiment [7] and -0.5 °C in experiment [13]. In addition, the CFL1 phosphorylation entry in experiment [8] is “Relatively low levels”. Also, the IC50 in [9] (cell-free assay) is 0.0034 µM; in experiment [14], over 50 µM. For the same compound, the “selectivity for AURKA over AURKB” value in experiment [9] is reported as 1000 fold. Also, the “increase of binding to the AURKA-TPX2 complex” value in experiment [10] was 2.4 fold. For the same compound, in experiment [11], the antiproliferative effects result was “Antiproliferative effects”. Further, in experiment [12], the “cell cycle arrest, multinucleation and apoptosis” value was “G2/M cell cycle arrest, multinucleation, and apoptosis”.

For `CCN1CCN(C(=O)Cc2ccc(Nc3ncc(F)c(Nc4ccc(C(=O)O)cc4)n3)cc2)CC1` [ERJ2-12], the shift in melting temperature (ΔTm) at 10 µM in [1] (compound 10 µM, n = 3) came out at 3.8 °C; in experiment [2] (compound 10 µM, n = 3) it was 0 °C; in experiment [3] (compound 10 µM, n = 3), 0.3 °C; in [4] (compound 10 µM, n = 3), 0.4 °C; in experiment [5] (compound 10 µM, n = 3) it was 1 °C; in experiment [6] (compound 10 µM, n = 3) it was 0.3 °C. Moreover, the ΔTm at 10 µM in experiment [7] (compound 10 µM, n = 3) was -0.2 °C; in experiment [13] (compound 10 µM, n = 3), -2.5 °C. Moreover, in experiment [14] (setting [15]), the IC50 was over 50 µM.

As for `NC(=O)Cc1ccc(Nc2ncc(F)c(Nc3ccc(C(=O)Nc4ccccc4Cl)cc3)n2)cc1` [ERJ2-06], the ΔTm at 10 µM in [1] (compound 10 µM, n = 3) was found to be 6.8 °C; in [2] (compound 10 µM, n = 3), 0.1 °C; in [3] (compound 10 µM, n = 3), 3.5 °C; in experiment [4] (compound 10 µM, n = 3), 1.4 °C; in experiment [5] (compound 10 µM, n = 3), 3.1 °C; in experiment [6] (compound 10 µM, n = 3), 1.3 °C. Besides, the shift in melting temperature (ΔTm) at 10 µM worked out at 1.7 °C in experiment [7] (compound 10 µM, n = 3) and 0.5 °C in experiment [13] (compound 10 µM, n = 3). Moreover, the IC50 in experiment [14] (setting [16]) stood at 13.6 µM.

On to `O=C(Cc1ccc(Nc2ncc(F)c(Nc3ccc(C(=O)Nc4ccccc4Cl)cc3)n2)cc1)NCCN1CCOCC1` [ERJ2-04], for which the thermal shift (ΔTm) at 10 µM in experiment [1] (compound 10 µM, n = 3) stood at 4.4 °C; in experiment [2] (compound 10 µM, n = 3), 0.1 °C; in experiment [3] (compound 10 µM, n = 3) it was 1.2 °C; in experiment [4] (compound 10 µM, n = 3) it was 0.5 °C; in experiment [5] (compound 10 µM, n = 3), 2 °C; in experiment [6] (compound 10 µM, n = 3) it was 0.9 °C. For the same compound, the ΔTm at 10 µM in [7] (compound 10 µM, n = 3) was 0.4 °C; in [13] (compound 10 µM, n = 3), -0.8 °C. The IC50 in experiment [14] (setting [15]) was over 50 µM.

With `CCN1CCN(C(=O)Cc2ccc(Nc3ncc(F)c(Nc4ccc(C(=O)Nc5ccccc5)cc4)n3)cc2)CC1` [ERJ2-11], the ΔTm at 10 µM is 7.3 °C in experiment [1] (compound 10 µM, n = 3); -0.1 °C in experiment [2] (compound 10 µM, n = 3); 3.6 °C in experiment [3] (compound 10 µM, n = 3); 1.7 °C in [4] (compound 10 µM, n = 3); 3.6 °C in [5] (compound 10 µM, n = 3); 1.7 °C in [6] (compound 10 µM, n = 3). For the same compound, the ΔTm at 10 µM is 1.3 °C in experiment [7] (compound 10 µM, n = 3) and -0.2 °C in experiment [13] (compound 10 µM, n = 3). Also, the IC50 in [14] (setting [16]) was 43 µM.
